Results: patent US20230159527A1, “COMPOUNDS AS BCL-2 INHIBITORS” (Fochon Pharmaceuticals, Ltd., priority 2020, published 2023)

How the values were obtained:
Type in all cases: cell-based
[1] = test system: Toledo cells; assay: Cell proliferation assay, Toledo cells (MTS, 72 h); conditions: Homo sapiens, Toledo cells, MTS, read-out: Toledo IC50
Method in brief: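 IC50 was derived from 490 nm absorbance after a 2 h MTS step. Before that, compounds at 1.5–10000 nM final (nine points) acted on Toledo cells for 72 h at 37 °C, 5% CO2. Cells were seeded at 30000/well in 10% FBS RPMI-1640 and rested 4 h before dosing.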

[2] = test system: RS4;11-BCL-2 G101V cells; assay: Cell proliferation assay, engineered RS4;11 cells stably overexpressing BCL-2 G101V (MTS, 168 h); conditions: Homo sapiens, RS4-11, 168 h, read-out: RS4, 11 BCL2- G101V
Procedure: (§1) MTS testing kit was purchased from Promega (Madison, Wis., USA). The RPMI-1640, Fetal bovine serum and Penicillin-Streptomycin were purchased from BI (Biological Industries, Beit Haemek, Israel). Puromycin was purchased from Beyotime (shanghai, China). Dimethyl sulfoxide (DMSO) was purchased from Sigma (St. Louis, Mo., USA). RS4;1l-BCL-2 G101V and RS4;11-BCL-2 F104L cells were cultured in RPM11640 supplemented with 1 ug/mL puromycin, 100 U/mL Penicillin-Streptomycin and 10% FBS.
(§2) To investigate whether a compound is able to inhibit the activity of BCL-2 mutation in cells, a mechanism-based assay using engineered cell lines stably overexpressing BCL-2 mutation ([…] and […]) was developed. In this assay, the inhibition of BCL-2 mutation was reflected by the inhibition of cell proliferation of RS4;11-BCL-2 G101V and RS4;11-BCL-2 F104L cells. Cells were plated into 96-well plates at optimized cell density (RS4;11-BCL-2 G101V: 5000 cells/well; RS4;11-BCL-2 F104L: 5000 cells/well). Plates were incubated at 37° C., with 5% CO2 for 4 h. Compounds were serially diluted to the final-concentrations of 10000, 3333.3, 1111.1, 370.4, 123.5, 41.2, 13.7, 4.6 and 1.4 nM and added to the plates. Plates were incubated at 37° C., with 5% CO2 for 168 h. 20 μl MTS was added into each well and the plates were incubated at 37° C., with 5% CO2 exactly for 2 h. The absorbance was measured by a microplate reader at 490 nm. IC50 values were calculated using GraphPad Prism 5.0 software.

[3] = test system: RS4;11-BCL-2 F104L cells; assay: Cell proliferation assay, engineered RS4;11 cells stably overexpressing BCL-2 F104L (MTS, 168 h); conditions: Homo sapiens, read-out: RS4, 11 BCL2-F104L
Procedure: as §1, §2

IC50 [2] [nM]	IC50 [3] [nM]	SMILES	IC50 [1] [nM]
1		CCOc1nc2[nH]ccc2cc1Oc1cc(N2CCC3(CC2)CN([C@H]2CCC[C@H]2c2ccccc2C(C)C)C3)ccc1C(=O)NS(=O)(=O)c1ccc(NC[C@H]2CC[C@](C)(O)CC2)c([N+](=O)[O-])c1 (single isomer, unassigned) [Example D-92, 2-((6-ethoxy-1H-pyrrolo[2,3-b]pyridin-5-yl)oxy)-N-((4-((((1r,4r)-4-hydroxy-4-methylcyclohexyl)methyl)amino)-3-nitrophenyl)sulfonyl)-4-(2-((1S,2S or 1R,2R)-2-(2-isopropylphenyl)cyclopentyl)-2,7-diazaspiro[3.5]nonan-7-yl)benzamide]	1
19		CC(C)c1ccccc1[C@@H]1CCC[C@@H]1N1CC2(CCN(c3ccc(C(=O)NS(=O)(=O)c4cc5c(c([N+](=O)[O-])c4)N[C@@H]([C@H]4CC[C@](C)(O)CC4)CO5)c(Oc4cc5cc[nH]c5nc4Cl)c3)CC2)C1 (single isomer, unassigned) [Example D-101, 2-((6-chloro-1H-pyrrolo2,3-b]pyridin-5-yl)oxy)-N-(((S)-3-((1r,4S)-4-hydroxy-4-methylcyclohexyl)-5-nitro-3,4-dihydro-2H-benzo[b] [1,4]oxazin-7-yl)sulfonyl)-4-(2-((1S,2S or 1R,2R)-2-(2-isopropylphenyl)cyclopentyl)-2,7-diazaspiro[3.5] nonan-7-yl)benzamide]	1
8		CC(C)c1ccccc1[C@@H]1CN(S(C)(=O)=O)CCN1C1CC2(CCN(c3ccc(C(=O)NS(=O)(=O)c4cc5c(c([N+](=O)[O-])c4)N[C@@H]([C@H]4CC[C@](C)(O)CC4)CO5)c(Oc4cnc5[nH]cc(F)c5c4)c3)CC2)C1 (single isomer, unassigned) [Example D-80, 2-((3-fluoro-1H-pyrrolo[2,3-b]pyridin-5-yl)oxy)-N-(((S)-3-((1r,4S)-4-hydroxy-4-methylcyclohexyl)-5-nitro-3,4-dihydro-2H-benzo[b] [1,4]oxazin-7-yl)sulfonyl)-4-(2-((R or S)-2-(2-isopropylphenyl)-4-(methylsulfonyl)piperazin-1-yl)-7-azaspiro[3.5]nonan-7-yl)benzamide]	1
2		CO[C@@H](C)COc1nc2[nH]ccc2cc1Oc1cc(N2CCC3(CC2)CC(N2CCC[C@H]2c2ccccc2C(C)C)C3)ccc1C(=O)NS(=O)(=O)c1cc2c(c([N+](=O)[O-])c1)N[C@@H]([C@H]1CC[C@](C)(O)CC1)CO2 (single isomer, unassigned) [Example D-202, N-(((S)-3-((1r,4S)-4-hydroxy-4-methylcyclohexyl)-5-nitro-3,4-dihydro-2H-benzo[b][1,4]oxazin-7-yl)sulfonyl)-4-(2-((R or S)-2-(2-isopropylphenyl)pyrrolidin-1-yl)-7-azaspiro[3.5]nonan-7-yl)-2-((6-((S)-2-methoxypropoxy)-1H-pyrrolo[2,3-b]pyridin-5-yl)oxy)benzamide]	1
1		CC(C)c1ccccc1[C@@H]1CCCN1C1CC2(CCN(c3ccc(C(=O)NS(=O)(=O)c4cc5c(c([N+](=O)[O-])c4)N[C@@H]([C@H]4CC[C@](C)(O)CC4)CO5)c(Oc4cc5cc[nH]c5nc4OC4CN(C)C4)c3)CC2)C1 (single isomer, unassigned) [Example D-201, N-(((S)-3-((1r,4S)-4-hydroxy-4-methylcyclohexyl)-5-nitro-3,4-dihydro-2H-benzo[b][1,4]oxazin-7-yl)sulfonyl)-4-(2-((R or S)-2-(2-isopropylphenyl)pyrrolidin-1-yl)-7-azaspiro[3.5]nonan-7-yl)-2-((6-((1-methylazetidin-3-yl)oxy)-1H-pyrrolo[2,3-b]pyridin-5-yl)oxy)benzamide]	1
	1	Cc1nc2[nH]cc(F)c2cc1Oc1cc(N2CCC3(CC2)CC(N2CCC[C@H]2c2ccccc2C(C)C)C3)ccc1C(=O)NS(=O)(=O)c1cc2c(c([N+](=O)[O-])c1)N[C@@H]([C@H]1CC[C@](C)(O)CC1)CO2 (single isomer, unassigned) [Example D-244, 2-((3-fluoro-6-methyl-1H-pyrrolo [2,3-b]pyridin-5-yl)oxy)-N-(((S)-3-((1r,4S)-4-hydroxy-4-methylcyclohexyl)-5-nitro-3,4-dihydro-2H-benzo[b][1,4]oxazin-7-yl)sulfonyl)-4-(2-((R or S)-2-(2-isopropylphenyl)pyrrolidin-1-yl)-7-azaspiro[3.5]nonan-7-yl)benzamide]	1
	8	CC(C)c1ccccc1[C@@H]1CCC[C@@H]1N1CC2(CCN(c3ccc(C(=O)NS(=O)(=O)c4cnc(NC[C@H]5CC[C@](C)(O)CC5)c([N+](=O)[O-])c4)c(Oc4cc5cc[nH]c5nc4F)c3)CC2)C1 (single isomer, unassigned) [Example A-158, 2-((6-fluoro-1H-pyrrolo[2,3-b]pyridin-5-yl)oxy)-N-((6-((((1r,4r)-4-hydroxy-4-methylcyclohexyl)methyl)amino)-5-nitropyridin-3-yl)sulfonyl)-4-(2-((1S,2S or 1R,2R)-2-(2-isopropylphenyl)cyclo-pentyl)-2,7-diazaspiro[3.5]nonan-7-yl) benzamide]	1
	10	Cc1nc2[nH]cc(F)c2cc1Oc1cc(N2CCC3(CC2)CN([C@H]2CCC[C@H]2c2ccccc2C(C)C)C3)ccc1C(=O)NS(=O)(=O)c1cc2c(c([N+](=O)[O-])c1)N[C@@H]([C@H]1CC[C@](C)(O)CC1)CO2 (single isomer, unassigned) [Example D-240, 2-((3-fluoro-6-methyl-1H-pyrrolo [2,3-b]pyridin-5-yl)oxy)-N-(((S)-3-((1r,4S)-4-hydroxy-4-methylcyclohexyl)-5-nitro-3,4-dihydro-2H-benzo[b][1,4]oxazin-7-yl)sulfonyl)-4-(2-((1S,2S or 1R,2R)-2-(2-isopropylphenyl)cyclopentyl)-2,7-diazaspiro[3.5]nonan-7-yl)benzamide]	1
	8	Cc1nc2[nH]cc(F)c2cc1Oc1cc(N2CCC3(CC2)CN([C@H]2CCC[C@H]2c2ccccc2C(C)C)C3)ccc1C(=O)NS(=O)(=O)c1ccc(NC[C@H]2CC[C@](C)(O)CC2)c([N+](=O)[O-])c1 (single isomer, unassigned) [Example D-234, 2-((3-fluoro-6-methyl-1H-pyrrolo [2,3-b]pyridin-5-yl)oxy)-N-((4-((((1r,4r)-4-hydroxy-4-methylcyclohexyl)methyl)amino)-3-nitrophenyl)sulfonyl)-4-(2-((1S,2S or 1R,2R)-2-(2-isopropylphenyl)cyclopentyl)-2,7-diazaspiro[3.5]nonan-7-yl)benzamide]	1
	8	COc1nc2[nH]cc(F)c2cc1Oc1cc(N2CCC3(CC2)CC(N2CCC[C@H]2c2ccccc2C(C)C)C3)ccc1C(=O)NS(=O)(=O)c1cc2c(c([N+](=O)[O-])c1)N[C@@H]([C@H]1CC[C@](C)(O)CC1)CO2 (single isomer, unassigned) [Example D-83, 2-((3-fluoro-6-methoxy-1H-pyrrolo [2,3-b]pyridin-5-yl)oxy)-N-(((S)-3-((1r,4S)-4-hydroxy-4-methylcyclohexyl)-5-nitro-3,4-dihydro-2H-benzo[b][1,4]oxazin-7-yl)sulfonyl)-4-(2-((R or S)-2-(2-isopropylphenyl)pyrrolidin-1-yl)-7-azaspiro[3.5]nonan-7-yl)benzamide]	1
	15	CCOc1nc2[nH]cc(F)c2cc1Oc1cc(N2CCC3(CC2)CN([C@H]2CCC[C@H]2c2ccccc2C(C)C)C3)ccc1C(=O)NS(=O)(=O)c1ccc(NC[C@H]2CC[C@](C)(O)CC2)c([N+](=O)[O-])c1 (single isomer, unassigned) [Example D-110, 2-((6-ethoxy-3-fluoro-1H-pyrrolo [2,3-b]pyridin-5-yl)oxy)-N-((4-((((1r,4r)-4-hydroxy-4-methylcyclohexyl)methyl)amino)-3-nitrophenyl)sulfonyl)-4-(2-((1S,2S or 1R,2R)-2-(2-isopropylphenyl)cyclopentyl)-2,7-diazaspiro[3.5]nonan-7-yl)benzamide]	1
	16	Cc1nc2[nH]cc(F)c2cc1Oc1cc(N2CCC3(CC2)CN([C@H]2CCC[C@H]2c2ccccc2C(C)C)C3)ccc1C(=O)NS(=O)(=O)c1cnc(NC[C@H]2CC[C@](C)(O)CC2)c([N+](=O)[O-])c1 (single isomer, unassigned) [Example A-156, 2-((3-fluoro-6-methyl-1H-pyrrolo[2,3-b]pyridin-5-yl)oxy)-N-((6-((((1r,4r)-4-hydroxy-4-methylcyclohexyl)methyl)amino)-5-nitropyridin-3-yl)sulfonyl)-4-(2-((1S,2S or 1R,2R)-2-(2-isopropylphenyl)cyclo-pentyl)-2,7-diazaspiro[3.5]nonan-7-yl) benzamide]	1
